Test results as given in patent publication US7163800B2, “Methods of screening compositions for G protein-coupled receptor desensitization inhibitory activity” (Molecular Devices Corporation, priority 2000, dated 2007).
Like-named read-outs stand apart in the source and are kept apart here.

What was measured:
[1] = molecular target: HA-tagged human β2-adrenergic receptor (β2AR) (Homo sapiens, UniProt P07550); experiment: arrestin-GFP localization (Fgrains) assay in U20S-β2AR/ArrGFP cells, isoproterenol stimulated
Experimental: Each of the fifteen compounds was separately screened for GPCR desensitization inhibitory activity against HA-tagged human β2-adrenergic receptor (β2AR) and against human vasopressin V2 receptor (V2R). In addition, the effects of temperature and carbon dioxide (CO2) were evaluated with respect to each compound.

β2AR and V2R = conditions: inhibitory activity shown for both β2AR and V2R
From the text: Each of the fifteen compounds was separately screened for GPCR desensitization inhibitory activity against HA-tagged human β2-adrenergic receptor (β2AR) and against human vasopressin V2 receptor (V2R).
As indicated by the Fgrains values for the cells in the Basal and Stimulated control wells, the Fgrains value determined by the IN Cell Analyzer 3000 in this example was functionally a measure of the average extent of desensitization in the cells in each well.

[2] = molecular target: human vasopressin V2 receptor (V2R) (Homo sapiens, UniProt P30518); experiment: arrestin-GFP localization (Fgrains) assay in U20S-V2R/ArrGFP cells, arginine vasopressin stimulated; format: cell-based; conditions: 100 nM arginine vasopressin
Experimental: The assay was carried out using two different “double stable” human osteosarcoma cell (U20S) lines. […] The other cell line (U20S-V2R/ArrGFP) stably expressed V2R and the same arrestin-GFP conjugate.
The two cell lines (U20S-β2AR/ArrGFP and U20S-V2R/ArrGFP) were separately plated at 7000 cells/well on 384 well glass bottom plates. Two plates of U20S-β2AR/ArrGFP cells were prepared and two plates of U20S-V2R/ArrGFP cells were prepared.
Growth media was replaced with serum free media (i.e., Eagle's minimum essential medium (EMEM) buffered with 10 mM HEPES (N-2-Hydroxyethylpiperazine-N′-2-ethanesulfonic acid)) 24 hours after plating of the cells.
Each test compound was solvated using 100% dimethyl sulfoxide (DMSO). Multiple solutions of each compound were prepared at varying concentrations for testing in separate wells of each plate. If needed, the solutions were sonicated and heated to increase solubility. After preparation of the compound solutions, they were shielded from light.
Each of the solutions of varying concentrations of the fifteen compounds was added to a well on each of the four plates. The β2AR RT and V2R RT plates were incubated for 30 minutes at room temperature and atmospheric CO2.
Agonist was then added to each well. […] The β2AR RT and V2R RT plates were incubated for 30 minutes at room temperature and atmospheric CO2.
Each assay was then terminated using 1% paraformaldehyde containing 1 μM DRAQ5 DNA probe to fix the cells. The cells were analyzed using a pre-production model (alpha unit) of the IN Cell Analyzer 3000 (Amersham Biosciences), which is a line scanning, confocal imaging system. The IN Cell Analyzer 3000 was used to quantitate the localization of the arrestin-GFP conjugate for the cells in each well using the Amersham Biosciences granularity analysis GRNO algorithm. This algorithm finds the nucleus of cells and then dilates out a specified distance in which fluorescent spots or “grains” of arrestin-GFP localization are identified based on size and fluorescent intensity. The average of the fluorescent intensity of the identified grains per cell in an acquired image (i.e., Fgrains) was determined for each well on the plates.
The graphs for each compound as well as for the propanolol control are illustrated in FIGS. 7–22.
The curve-fitting program allowed the minimum and maximum values as well as the slope and EC50 values to vary rather than fixing the values to specified or collected values.

[3] = B2AR CO2 plate: 37° C., 5% CO2/95% O2, 100 nM isoproterenol
[4] = B2AR RT plate: room temperature, atmospheric CO2, 100 nM isoproterenol
[5] = V2R CO2 plate: 37° C., 5% CO2/95% O2
[6] = V2R RT plate: room temperature, atmospheric CO2

Compound | Max Rsp (change between fitted maximum and fitted minimum Fgrains) [1, 3] | Min (fitted minimum Fgrains) [1, 3] | slope of concentration-response curve [1, 3] | EC50 [1, 3] [µM] | pEC50 [1, 3] | Max Rsp (change between fitted maximum and fitted minimum Fgrains) [1, 4] | Min (fitted minimum Fgrains) [1, 4] | pEC50 [1, 4] | slope of concentration-response curve [1, 4] | indication of non-receptor-specific GPCR desensitization inhibitory activity (β2AR and V2R) | EC50 [2, 5] [µM] | Max Rsp (change between fitted maximum and fitted minimum Fgrains) [2, 5] | Min (fitted minimum Fgrains) [2, 5] | pEC50 [2, 5] | slope of concentration-response curve [2, 5] | EC50 [2, 6] [µM] | Max Rsp (change between fitted maximum and fitted minimum Fgrains) [2, 6] | Min (fitted minimum Fgrains) [2, 6] | pEC50 [2, 6] | slope of concentration-response curve [2, 6] | other results
CCC(=O)n1nc2c(c1C(C)(C)C)C(=O)c1ccccc1-2 [3-tert-Butyl-2-propionyl-2H-indeno[1,2-c]pyrazol-4-one] | 129 | 307 | 3.2 |  |  |  |  |  |  |  |  |  |  |  |  |  |  |  |  |  | EC50 [1]: 46.9 µM
Cn1cc(C2=C(c3cn(CCCN)c4ccccc34)C(=O)NC2=O)c2ccccc21 [RO-31-7549] | 243 | 193 | 1.2 | 9.4 | 5.0 | 423 | 4 | 4.5 | 0.8 | non-receptor-specific GPCR desensitization inhibitory activity | 2.7 | 357 | 240 | 5.6 | 1.0 | 3.3 | 320 | 250 | 5.5 | 1.5 | EC50 [1, 4]: 31.1 µM
Cn1cc(C2=C(c3c4n(c5ccccc35)CCC(CN)C4)C(=O)NC2=O)c2ccccc21 (stereo not drawn) [RO-31-8425] | 203 | 233 | 2.1 | 8.8 | 5.1 | 359 | 60 | 4.6 | 1.3 | non-receptor-specific GPCR desensitization inhibitory activity | 13.9 | 532 | 60 | 4.9 | 1.0 | 6.9 | 342 | 241 | 5.2 | 1.5 | EC50 [1, 4]: 23.2 µM
O=C1NC(=O)C(c2cn(CCCN3CCNCC3)c3ccccc23)=C1c1c[nH]c2ccccc12 [Bisindolylmaleimide VII] | 278 | 167 | 2.3 | 21.2 | 4.7 | 281 | 148 | 4.6 | 2.2 | non-receptor-specific GPCR desensitization inhibitory activity | 9.3 | 336 | 250 | 5.0 | 2.4 | 36.6 | 717 | −130 | 4.4 | 1.1 | EC50 [1, 4]: 24.9 µM
Cl.NCCCn1cc(C2=C(c3c[nH]c4ccccc34)C(=O)NC2=O)c2ccccc21 [Bisindolylmaleimide III, Hydrochloride] | 998 | −568 | 1.1 |  | 3.6 | 171 | 237 | 4.5 | 3.5 | non-receptor-specific GPCR desensitization inhibitory activity |  | 455 | 129 | 4.6 | 1.4 | 51.2 | 690 | −118 | 4.3 | 1.2 | EC50 ([1]; B2AR CO2 plate: 37° C., 5% CO2/95% O2, 100 nM isoproterenol, Hydrochloride): 233 µM; EC50 ([1]; B2AR RT plate: room temperature, atmospheric CO2, 100 nM isoproterenol, Hydrochloride): 34.9 µM; EC50 ([2]; V2R CO2 plate: 37° C., 5% CO2/95% O2, Hydrochloride): 27.2 µM
NCCCn1cc(C2=C(c3c[nH]c4ccccc34)C(=O)NC2=O)c2ccccc21 [Bisindolylmaleimide III] | 194 | 243 | 1.8 | 11.1 | 5.0 | 232 | 212 | 4.7 | 1.2 | non-receptor-specific GPCR desensitization inhibitory activity | 6 | 298 | 291 | 5.2 | 1.9 | 19.3 | 361 | 225 | 4.7 | 0.9 | EC50 [1, 4]: 22.4 µM
Bisindolylmaleimide VI | 270 | 170 | 2.4 | 12.7 | 4.9 | 210 | 213 | 5.0 | 4.4 | non-receptor-specific GPCR desensitization inhibitory activity | 24.6 | 499 | 94 | 4.6 | 0.8 | 18.3 | 696 | −118 | 4.7 | 1.2 | EC50 [1, 4]: 9 µM
CN1CCCC1CCn1cc(C2=C(c3c[nH]c4ccccc34)C(=O)NC2=O)c2ccccc21 (stereo not drawn) [Bisindolylmaleimide II] | 502 | −70 | 1.7 | 62.1 | 4.2 | 924 | −508 | 4.1 | 1.7 | non-receptor-specific GPCR desensitization inhibitory activity | 29.2 | 420 | 159 | 4.5 | 1.2 | 35 | 576 | −7 | 4.5 | 1.1 | EC50 [1, 4]: 87.3 µM
O=C1NC(=O)C(c2c[nH]c3ccccc23)=C1c1c[nH]c2ccccc12 [Bisindolylmaleimide IV] |  |  |  |  |  |  |  |  |  |  | 69.2 | 277 | 292 | 4.2 | 6.5 |  |  |  |  |  | 
